{
  "source": "patent US20260315487A1",
  "about": "“IKK-ALPHA INHIBITORS” (Cancer Research Technology Limited, priority 2023, published 2026)",
  "key": {"[1]": {"target": "CDK5 (Homo sapiens, UniProt Q00535)", "sequence (Q00535 whole entry, species assumed)": "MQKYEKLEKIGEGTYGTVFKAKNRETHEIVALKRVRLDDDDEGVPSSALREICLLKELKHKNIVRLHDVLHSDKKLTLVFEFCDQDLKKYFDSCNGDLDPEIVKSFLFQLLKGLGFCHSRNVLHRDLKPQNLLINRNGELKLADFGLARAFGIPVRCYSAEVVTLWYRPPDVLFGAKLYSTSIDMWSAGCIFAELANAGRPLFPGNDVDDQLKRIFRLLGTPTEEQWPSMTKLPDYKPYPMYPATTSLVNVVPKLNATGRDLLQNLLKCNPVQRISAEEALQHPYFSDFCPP", "sequence (Q15078 99-307 partner limits assumed, species assumed)": "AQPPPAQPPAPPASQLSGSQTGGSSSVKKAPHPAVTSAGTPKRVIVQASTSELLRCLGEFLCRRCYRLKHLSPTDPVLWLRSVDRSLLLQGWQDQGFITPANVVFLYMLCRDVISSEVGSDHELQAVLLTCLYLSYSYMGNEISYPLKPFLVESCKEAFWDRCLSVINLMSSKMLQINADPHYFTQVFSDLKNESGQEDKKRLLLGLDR", "assay": "kinome profiling at 1 μM, CDK5", "assay_type": "biochemical", "details": "read-out: % inhibition of CDK5", "excerpt": "(§1) We profiled three compounds from the series across the kinome (FIG. 11). […] To identify the structural drivers for CDK inhibition, we obtained X-ray crystal structures of 5 y and 6 g SU1336 and SU1349 with CDK-2 (FIG. 12A) to potentially identify possible routes towards introducing selectivity for IKKα over the CDK enzymes as well as IKKβ. […] All three derivatives form complexes with CDK2 with the pyrrolo[2,3 -b]pyridine H-bonding to GK+3 (Leu 83 ) and the aminoindazole projected towards the G-loop (FIG. 12A), forming H-bonds with Glu 51 and Lys 33 at the back of the pocket. The adoption of the 4 SU1253 -type orientation, rather than the flipped pose observed in IKKα, is probably facilitated by Tr-stacking between the aminoindazole and the GK residue, which in the CDKs is Phe, rather than Met. […] For 6 g SU1349, the hydrophobic pendant benzyloxy group points out into solvent, but can form face-to-edge Tr-Tr interactions with Phe 82 and His 84 from the hinge. Exchanging the hydrophobic pendant benzyloxy group for the morpholinoethyl-containing substituent in 5 y SU1336 removes any direct interaction with these hinge residues, preferring to sit in a more solvent-exposed position, as befits a basic side chain that will be protonated at physiological pH (FIG. 12B).\n(§2) Black, 4 SU1253; grey, 5 r SU1261; diagonal stripes, 6 g SU1349. […] All tested compounds (4 SU1253, 5 r SU1261 and 6 g SU1349 ) inhibited CDK5 and CDK9 with >80 %."}, "[2]": {"target": "T1, PRAK (Homo sapiens, UniProt Q8IW41)", "T1 sequence (Q8IW41 1-473)": "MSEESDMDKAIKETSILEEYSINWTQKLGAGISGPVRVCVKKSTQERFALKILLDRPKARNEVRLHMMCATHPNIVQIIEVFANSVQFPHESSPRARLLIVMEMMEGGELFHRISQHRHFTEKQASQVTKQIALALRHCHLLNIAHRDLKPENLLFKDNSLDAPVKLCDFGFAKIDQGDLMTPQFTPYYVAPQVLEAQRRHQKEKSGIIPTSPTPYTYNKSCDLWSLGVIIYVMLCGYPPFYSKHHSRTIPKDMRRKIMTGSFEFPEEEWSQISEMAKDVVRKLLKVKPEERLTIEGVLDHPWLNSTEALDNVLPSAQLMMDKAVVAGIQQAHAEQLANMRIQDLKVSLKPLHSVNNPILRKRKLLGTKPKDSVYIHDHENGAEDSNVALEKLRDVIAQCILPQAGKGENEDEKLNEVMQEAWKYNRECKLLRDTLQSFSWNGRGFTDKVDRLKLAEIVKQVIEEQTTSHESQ", "assay": "kinome profiling at 1 μM, PRAK", "assay_type": "biochemical", "excerpt": "as §1"}, "[3]": {"assay": "mouse hepatocyte clearance (cryopreserved pooled mouse CD1 hepatocytes)", "assay_type": "in vitro ADME", "details": "mouse, hepatocytes; 1 μM; 0.5×10^6 cells/mL; 37° C.", "experimental": "Pharmacokinetic studies were contracted to Sygnature Discovery Limited. Intrinsic clearance and half life were determined using cryopreserved pooled mouse CD1 hepatocytes. Test compounds were analysed at 1 μM in Williams Media E buffer (0.01 % DMSO) at a cell density of 0.5×10^6 cells mL^−1 . Cells were incubated at 37° C. for one hour with shaking and compound depletion was measured by LC-MS/MS at six timepoints (0.25, 5, 10, 20, 40, and 60 minutes)."}, "[4]": {"test_system": "panel of kinases", "assay": "kinome profiling at 1 μM", "assay_type": "biochemical", "excerpt": "as §1, §2"}, "[5]": {"target": "T2, haspin (Homo sapiens, UniProt Q8TF76)", "T2 sequence (Q8TF76 1-798)": "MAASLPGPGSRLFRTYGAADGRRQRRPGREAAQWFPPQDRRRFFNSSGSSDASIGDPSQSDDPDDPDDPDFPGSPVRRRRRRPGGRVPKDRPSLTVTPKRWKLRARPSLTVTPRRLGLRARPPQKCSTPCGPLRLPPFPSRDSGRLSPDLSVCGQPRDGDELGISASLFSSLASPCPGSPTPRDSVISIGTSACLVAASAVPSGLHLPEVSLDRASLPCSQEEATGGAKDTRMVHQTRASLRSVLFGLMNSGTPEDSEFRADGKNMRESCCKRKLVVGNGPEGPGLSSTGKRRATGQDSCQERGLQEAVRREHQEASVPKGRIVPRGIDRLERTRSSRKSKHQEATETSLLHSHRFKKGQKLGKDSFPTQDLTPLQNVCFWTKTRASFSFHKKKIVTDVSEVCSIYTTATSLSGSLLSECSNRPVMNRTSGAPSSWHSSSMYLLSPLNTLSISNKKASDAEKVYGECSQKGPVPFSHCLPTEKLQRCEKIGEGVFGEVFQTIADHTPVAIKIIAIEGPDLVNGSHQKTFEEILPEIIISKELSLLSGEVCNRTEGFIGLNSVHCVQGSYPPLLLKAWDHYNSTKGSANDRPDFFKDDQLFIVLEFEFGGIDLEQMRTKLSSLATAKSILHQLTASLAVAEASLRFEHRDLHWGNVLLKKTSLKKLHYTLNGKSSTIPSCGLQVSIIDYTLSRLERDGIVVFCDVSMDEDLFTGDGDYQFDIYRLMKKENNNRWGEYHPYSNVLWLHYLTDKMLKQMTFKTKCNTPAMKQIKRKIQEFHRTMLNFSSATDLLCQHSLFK", "assay": "kinome profiling at 1 μM, haspin", "assay_type": "biochemical", "excerpt": "as §1"}, "[6]": {"target": "CDK9 (Homo sapiens, UniProt P50750)", "sequence (P50750 whole entry, species assumed)": "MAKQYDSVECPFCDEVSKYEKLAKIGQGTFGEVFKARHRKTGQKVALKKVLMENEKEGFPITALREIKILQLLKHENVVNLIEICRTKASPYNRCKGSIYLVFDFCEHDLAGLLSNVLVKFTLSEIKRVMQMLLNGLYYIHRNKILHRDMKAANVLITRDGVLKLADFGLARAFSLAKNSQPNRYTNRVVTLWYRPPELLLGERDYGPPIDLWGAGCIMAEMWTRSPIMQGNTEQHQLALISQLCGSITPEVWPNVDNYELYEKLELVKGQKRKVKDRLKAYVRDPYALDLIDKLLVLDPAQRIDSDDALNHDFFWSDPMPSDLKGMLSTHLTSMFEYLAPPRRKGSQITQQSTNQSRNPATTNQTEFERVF", "sequence (O60563 whole entry partner, species assumed)": "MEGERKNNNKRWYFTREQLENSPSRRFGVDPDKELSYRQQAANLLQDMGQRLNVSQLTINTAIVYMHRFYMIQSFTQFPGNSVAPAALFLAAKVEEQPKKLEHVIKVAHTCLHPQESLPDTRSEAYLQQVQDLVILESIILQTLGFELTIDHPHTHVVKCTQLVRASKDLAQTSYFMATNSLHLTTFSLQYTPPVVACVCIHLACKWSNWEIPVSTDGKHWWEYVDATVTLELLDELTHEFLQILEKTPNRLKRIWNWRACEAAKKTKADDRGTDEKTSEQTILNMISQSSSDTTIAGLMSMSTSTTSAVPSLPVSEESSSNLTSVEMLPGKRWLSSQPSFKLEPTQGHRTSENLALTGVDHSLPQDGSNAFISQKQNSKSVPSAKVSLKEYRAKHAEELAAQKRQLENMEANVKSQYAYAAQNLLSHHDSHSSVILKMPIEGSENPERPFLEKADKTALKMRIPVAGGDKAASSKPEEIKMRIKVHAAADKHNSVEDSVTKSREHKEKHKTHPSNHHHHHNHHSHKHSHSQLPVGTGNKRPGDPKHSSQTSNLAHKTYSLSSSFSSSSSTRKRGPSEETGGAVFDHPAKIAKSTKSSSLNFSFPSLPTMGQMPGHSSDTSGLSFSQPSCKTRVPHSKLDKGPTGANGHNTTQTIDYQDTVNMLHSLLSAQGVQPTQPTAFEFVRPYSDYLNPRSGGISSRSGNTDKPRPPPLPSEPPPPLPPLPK", "assay": "kinome profiling at 1 μM, CDK9", "assay_type": "biochemical", "details": "read-out: % inhibition of CDK9", "excerpt": "as §1, §2"}, "[7]": {"target": "T3, MKK7 P (Homo sapiens, UniProt O14733)", "T3 sequence (O14733 1-419)": "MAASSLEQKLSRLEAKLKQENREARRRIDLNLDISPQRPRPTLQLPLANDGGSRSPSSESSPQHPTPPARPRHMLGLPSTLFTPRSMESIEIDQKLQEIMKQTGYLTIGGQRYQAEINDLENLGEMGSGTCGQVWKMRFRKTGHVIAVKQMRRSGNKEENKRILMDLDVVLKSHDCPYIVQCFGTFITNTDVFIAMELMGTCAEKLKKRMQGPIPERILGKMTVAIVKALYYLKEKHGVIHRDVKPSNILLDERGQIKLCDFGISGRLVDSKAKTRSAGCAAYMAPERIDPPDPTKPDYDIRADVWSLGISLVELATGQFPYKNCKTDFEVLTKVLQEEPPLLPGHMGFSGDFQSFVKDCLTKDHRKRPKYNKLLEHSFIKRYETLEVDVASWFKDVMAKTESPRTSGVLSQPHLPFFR", "assay": "kinome profiling at 1 μM, MKK7", "assay_type": "biochemical", "excerpt": "as §1"}},
  "note": "Where two headings read alike, the source gives them in different places.",
  "data": [
    {"smiles": "Nc1n[nH]c2ccc(-c3ccnc4[nH]c(-c5cccc(OCc6ccccc6)c5)cc34)cc12", "note": "[5r SU1261, 5-(2-(3-(benzyloxy)phenyl)-1 H-pyrrolo[2,3-b]pyridin-4-yl)-1 H-indazol-3-amine]", "values": [
      {"measurement": "inhibition at 1 µM", "setting": "[1]; 1 μM", "result": "> 80", "unit": "%"},
      {"measurement": "inhibition at 1 µM", "setting": "[2]", "result": "> 80", "unit": "%"},
      {"measurement": "hepatocyte CLint", "setting": "[3]", "result": 38, "unit": "µL/min/1e6 cells"},
      {"measurement": "number of kinases inhibited by >80 %", "setting": "[4]; panel of 231 kinases", "result": 10, "unit": "kinases"},
      {"measurement": "number of kinases inhibited by >80 %", "setting": "[4]; panel of 253 kinases (FIG. 11)", "result": 10, "unit": "kinases"},
      {"measurement": "inhibition at 1 µM", "setting": "[5]", "result": "> 80", "unit": "%"},
      {"measurement": "inhibition at 1 µM", "setting": "[6]; 1 μM", "result": "> 80", "unit": "%"},
      {"measurement": "inhibition at 1 µM", "setting": "[7]; read-out: % inhibition of MKK7", "result": "> 80", "unit": "%"}
    ]},
    {"smiles": "Nc1n[nH]c2ccc(-c3ccnc4[nH]c(-c5ccnc(OCc6ccccc6)c5)cc34)cc12", "note": "[6g SU1349, 5-(2-(2-(Benzyloxy)pyridin-4-yl)-1 H-pyrrolo[2,3-b]pyridin-4-yl)-1 H-indazol-3-amine]", "values": [
      {"measurement": "inhibition at 1 µM", "setting": "[1]", "result": "> 80", "unit": "%"},
      {"measurement": "off-target inhibition of PRAK, in words", "setting": "[2]; compared with 5r SU1261", "result": "significantly reduced off-target inhibition"},
      {"measurement": "hepatocyte CLint", "setting": "[3]", "result": 27, "unit": "µL/min/1e6 cells"},
      {"measurement": "number of kinases inhibited by >80 %", "setting": "[4]; panel of 253 kinases (FIG. 11)", "result": 4, "unit": "kinases"},
      {"measurement": "inhibition at 1 µM", "setting": "[6]", "result": "> 80", "unit": "%"},
      {"measurement": "off-target inhibition of MKK7, in words", "setting": "[7]; 1 μM, compared with 5r SU1261", "result": "significantly reduced off-target inhibition"}
    ]}
  ]
}
